These are literature values, as cited in patent publication US20130303628A1, “CURCUMINOID SOLID DISPERSION FORMULATION” (ABBOTT LABORATORIES, priority 2010, published 2013).

For the series the following is noted: acidic and neutral pH.

In the case of `COc1cc(C=CC(=O)CC(=O)C=Cc2ccc(O)c(OC)c2)ccc1O` [Curcumin, 1,7-Bis-(4-hydroxy-3-methoxyphenyl)-hepta-1,6-diene-3,5-dione], the solubility in water entry is on record as “practically insoluble”.
